Like-named read-outs stand apart in the source and are kept apart here.
Assays:
HeLa cells [1] = assay: MTT cell death assay, HeLa cells; assay type: cell-based; details: for cell survival percentage: MTT (FIG. 1)
Procedure: (§1) Cell death was determined by the 3-(4,5-dimethylthiazol-2-yl)-2,5-diphenyl tetrazolium bromide (MTT) assay or by trypan blue exclusion, as indicated. Briefly, HeLa and DLD1 cells were plated in a 96-well plate at 10,000 cells per well, cultured for 24 h in complete growth medium, then treated with various concentrations of β-lapachone for 4 h MTT was added to a final concentration of 0.5 mg/ml, and incubated for 1 hr, followed by assessment of cell viability using a microplate reader at 570 nm. For the trypan blue exclusion assay, HeLa and DLD1 cells were plated in 6-well plate and treated in the same way. They were harvested, and trypan blue dye solution was added to the cell suspension. Total cell counts and viable cell numbers were determined with a hemacytometer. For the PARP inhibition study, cells were […] for 1 h with the PARP inhibitor 3-aminobenzamide (3-AB, 5 mM), and then co-treated with inhibitor and β-lapachone for a further 4 h, followed by MTT assay or trypan blue staining. […] HeLa and DLD1 cells were plated in 96-well plates at 10,000 cells per well, cultured for 24 h in complete growth medium, pretreated with PARP inhibitor 3-AB […] or equal volume of DMSO for 1 h, and then exposed to β-lapachone at various concentrations for a further 4 h, followed by MTT assay.

DLD1 cells = assay: MTT cell death assay, DLD1 cells; assay type: cell-based, human
Procedure: as §1

HeLa cells [2] = assay: NAD depletion assay; assay type: cell-based
Procedure: HeLa cells were plated at 6×10^5 cells per well (35 mm, 6-well dishes). Eighteen hours after plating, cells were treated with β-lapachone (0, 2, 4 or 8 μM) in growth media (DMEM; 10% FBS) for the time periods indicated (15, 30 and 60 minutes). Following drug treatment cells were washed 2× with PBS. Cells were subsequently lysed in 200 μL NAD lysis buffer (61 mM glycyl-glycine, pH 7.4, 0.1% Triton-X-100). Cellular lysates were clarified by centrifugation at 16,000 g for 10 minutes. Aliquots of clarified lysates were transferred to 96-well plates (25 μL samples in triplicate) for to determine NAD^+ concentrations.
Determination of lysate NAD levels was performed using a modification of the NAD recycling assay described by Ying et al. (PNAS, 98(21):12227-32 (2001)). Briefly, the NAD reaction mixture consisted of 0.1 mM 3-[4,5-dimethylthiazol-2-yl]-2,5-diphenyl-tetrazolium bromide (MTT), 0.9 mM phenazine methosulfate, 13 units/ml alcohol dehydrogenase (from yeast extract, Sigma), 100 mM nicotinamide, and 5.7% ethanol in 61 mM Gly-Gly buffer (pH 7.4). To each aliquot of cellular lysate, 200 μL of reaction mixture was added. Absorbance readings (560 nm) were taken every minute for five minutes. Results were calibrated with NAD^+ standards and were subsequently normalized to protein concentration as determined using the Bio-Rad protein Assay.

PARP [3] = assay: Immunofluorescence analysis with anti-poly(ADP-ribose) antibody, HeLa cells; assay type: cell-based
Procedure: HeLa and DLD1 cells were grown on coverslips for PARP activity experiments. Cells treated with 4 uM β-lapachone at different time points and fixed with methanol acetone (70/30, v/v) for 10 min at −20° C. Coverslips were air dried and rehydrated in PBS at room temperature for 10 min. Samples were than incubated in blocking buffer (PBS, 5% FBS) for 10 minutes at room temperature in a humid chamber. Cells were incubated overnight at 4° C. with monoclonal anti-poly(ADP-ribose) antibody (I OH, 1:100 dilution). After washing, the cells were incubated for 1 hr at room temperature with a 1:500 dilution of FITC conjugated anti-mouse antibody. For the PARP inhibition study, cells pre-teated for 1 h with the PARP inhibitor 3-aminobenzamide (3-AB, 5 mM), and then co-treated with inhibitor and β-lapachone for a further 10 minutes followed by immunofluorescence staining. Immunofluorescence was evaluated using an immunofluorescence microscope equipped with a CCD camera.
HeLa cells were grown on coverslips for 24 h, then treated with 4 μM β-lapachone at different time points and fixed with methanol acetone (70/30, v/v) for 10 min. Samples were incubated in blocking buffer (5% FBS in PBS) for 10 minutes at room temperature in a humid chamber. […] Immunofluorescence was evaluated using an immunofluorescence microscope equipped with a CCD camera. […]

[4] = tested on: E2F1 tet-inducible DLD1 cells; assay: Apoptosis in E2F1 tet-inducible DLD1 cells; assay type: cell-based
From the text: To investigate E2F1 induced apoptosis, an inducible system was established. Human colon cancer cell lines harboring a mutated p53 gene were used to generate E2F1-inducible cell lines (Rodrigues, et al., PNAS, 87:7555-9 (1990)). […] Under the tetracycline induction conditions, a significant percentage of DLD1 cells undergoing apoptosis were detected at a given time point (10% at day 3; 15% at day 4) as determined by propidium iodide (PI) staining and flow cytometry (FIG. 10B). The apoptosis was further confirmed by assaying morphological changes following expression of E2F1 (FIG. 10C). Similar data was obtained in E2F1-inducible SW480 human colon cancer cells. In addition to proapoptotic function, E2F1 is a necessary transcription factor for cell proliferation (Johnson, D. et al., Nature 365:349-52 (1993); Wu, L. et al. Nature 414:457-62 (2001)). Under these experimental conditions, no significant changes in overall cell cycle distribution were observed.
To further investigate the mechanism of E2F1-induced apoptosis, the role of caspase activation was investigated. Two forms of caspase-3, procaspase and cleaved caspase were detected by western blot analysis. […] Further, it was determined if E2F1-induced, p53 independent apoptosis was affected by inhibiting caspase function with a pancaspase inhibitor. Apoptosis induced by camptothecin, a known caspase-3 activator, was used as a positive control.
Activation of PARP-1 has been implicated in caspase independent apoptosis. It was investigated whether E2F1 induced cell death involved PARP-1 activation. Poly ADP ribosylation (PAR), the functional indicator of PARP-1 activation, was detected by immunoblot with a specific anti-PAR antibody. […] Immunocytochemical staining of PAR further conformed the activity of PARP-1 (FIG. 11B). The nuclear PAR stain was increased after expression of E2F1 for 24 h and reached a plateau at 48 h. To determine if poly ADP ribosylation plays a causal role in E2F1 induced apoptosis, 3′-aminobenzamide (3′-AB), a universal inhibitor of PARP activity, was used.
Protein poly ADP ribosylation is catalysed by members of the poly (ADP-ribose) polymerase family that consists of 18 genes (Amé, J. C., et al., Bioessays 26:882-93 (2004)). The PARP-1 protein is the dominant member in most cells, which contributes the majority of overall poly ADP ribosylation induced by DNA damage (Davidovic, L. et al., Exp Cell Res 268:7-13 (2001)). To distinguish which member of the PARP family was involved in E2F1-induced apoptosis, siRNA technology was utilized to reduce PARP-1 protein levels. A chemically synthesized PARP-1 siRNA pool was electroporated into the DLD1-E2F1 inducible cell line. The PARP-1 protein began to decrease at day 2 and reached the lowest levels at day 4 and gradually recovered from day 6 as shown by western blot (FIG. 12A) and immunocytochemical staining. […] The E2F1-induced apoptosis was compromised following PARP-1 knockdown (P<0.001) (FIG. 12C).

MCF7 cells = assay: NAD+ supplementation experiment, MTT assay; assay type: cell-based; details: Homo sapiens, 4 h, MTT (FIG. 8), read-out: IC50 (cytotoxicity)
Procedure: For NAD^+ supplementation experiment, MCF7 cells were plated in 96-well plates at a density of 10,000 cells per well. Sixteen to eighteen hours later cells were pre-treated with […] 3-aminobenzamide, 10 mM NAD+, or vehicle control (all treatments in formulated in growth media: DMEM with 10% fetal bovine serum) for 1 hour at 37° C. Following this incubation, cells (under each pre-incubation treatment) were treated with β-lapachone at indicated concentrations for 4 hours at 37° C. An MTT assay was then performed as described above.

PARP [5] = assay: PARP activity assay in cell lysate; assay type: biochemical, human; details: various β-lapachone concentrations vs 0 μM control, dose-dependent (FIG. 9)
Procedure: A cell extract was generated by scraping a 15 cm (˜80% confluent) dish of MCF7 cells into 1.5 ml of PARP buffer (50 mM Tris pH 8.0, 25 mM MgCl2) containing protease inhibitors. The cell suspension was sonicated at 30% amplitude with 3×10 second bursts on ice. The cell lysate was subsequently clarified by centrifugation at 16,000 g for 10 minutes at 4° C. Any remaining insoluble material was removed by passing the clarified lysate through a 5 ml syringe containing a cotton pad-filter. The protein concentration of extracts was typically between […]. PARP in vitro activity was determined using a modification of the PARP in vitro assay from TREVIGEN™. Reactions were comprised of the following: ˜60 μg of cellular protein, 100 μM NAD, 10 μg of histone H1, β-lapachone (at various concentrations) or DMSO control, 25 mM MgCl2, 50 mM Tris-Cl pH 8.0. Reactions were incubated for 10 minutes at room temperature and terminated by the addition of 900 μL of cold 25% trichloroacetic acid. Terminated reactions were incubated on ice for 10 minutes. TCA-precipitated proteins were isolated by passing reaction over glass-fiber filters under vacuum. Filters were subsequently washed three times with 5 ml of 5% TCA followed by 2 washes with cold ethanol. […] The amount of ^32P labeled NAD incorporated into polyribosylated proteins was then determined by liquid scintillation measurement.

## NC(=O)c1cccc(N)c1 [3-aminobenzamide]
HeLa cells [1]; HeLa cells, 3-AB pretreatment 1 h, MTT
  effect on β-lapachone-induced cell death: blocked
DLD1 cells; 3-AB pretreatment 1 h, MTT
  effect on β-lapachone-induced cell death: blocked
HeLa cells [2]; data not shown
  effect on β-lapachone-mediated NAD+ depletion: inhibited
PARP [3]; 5 mM 3-AB 1 h, then 4 μM β-lapachone 10 minutes (FIG. 5)
  effect on β-lapachone induced activation of PARP: blocked
[4]; 3′-AB alone vs control group
  effect on apoptosis of addition alone: no effect on apoptosis
[4]; Homo sapiens, DLD-1, read-out: inhibition of E2F1 induced apoptosis
  inhibition at 5000 µM: > 70%

## CC1(C)CCC2=C(O1)c1ccccc1C(=O)C2=O [β-lapachone, 3,4-dihydro-2,2-dimethyl-2H-naphtho [1,2-b]pyran-5,6-dione]
HeLa cells [1]; HeLa cells, pretreated 1 h with PARP inhibitor 3-AB, then β-lapachone for 4 h
  cell survival percentage: ~60%
HeLa cells [1]; HeLa cells, β-lapachone for 4 h without 3-AB
  cell survival percentage: approximately 5%
HeLa cells [1]; Homo sapiens, HeLa, cytotoxicity IC50 quoted in the NAD+ depletion example, cell line not given
  IC50: ~2800 nM
DLD1 cells; pretreated 1 h with PARP inhibitor 3-AB, then β-lapachone for 4 h, MTT (FIG. 1)
  cell survival percentage: approximately 75%
MCF7 cells; control (no NAD+ supplementation)
  IC50: ~2700 nM
MCF7 cells; exogenous NAD+ supplementation (10 mM, 1 h pre-treatment)
  IC50: ~6600 nM
HeLa cells [2]; 8 μM β-lapachone, within 15 minutes (FIG. 7)
  cellular NAD+ levels: ~20 % of control
HeLa cells [2]; β-lapachone concentrations in excess of the IC50, by 30 minutes (FIG. 7)
  cellular NAD+ levels: less than 50 % of control
PARP [3]; 4 μM β-lapachone, 5 minutes to 2 hours (FIG. 4)
  activation of PARP (anti-poly(ADP-ribose) fluorescence): increases fluorescence
PARP [5]
  PARP activity in cellular lysate: induces enhancement of PARP activity above the basal level

## Z-VAD
[4]; Z-VAD alone
  cytotoxic effects of addition alone: no cytotoxic effects
[4]; Z-VAD at 50 μM (FIG. 10F)
  effect on camptothecin-induced apoptosis: blocked
[4]; Z-VAD at 50 μM, tetracycline induction (FIG. 10F)
  effect on E2F1-induced apoptosis: failed to block

Reference: patent US20060204981A1, “Compositions for modulation of PARP and methods for screening for same” (priority 2005, published 2006)
